From US9113641B2, “Probiotic bacteria and regulation of fat storage” (Arla Foods amba, priority 2007, dated 2015)

What was measured:
Format in all cases: cell-based, human
[1] = system: malic enzyme (ME); experiment: Expression of PPARα target gene ME in HCT116 cells (real time PCR); conditions: 100 μM CLA for 24 h
Protocol: (§1) The human colorectal adenocarcinoma cell lines HCT116 (CCL-247, deposit at ATCC), LoVo (CCL-229, deposit ATCC), HT29 (HTB-38, deposit ATCC) and SW480 (CCL-228, deposit ATCC) were grown and maintained according to supplier's recommendations.
(§2) Conjugated linoleic acid (CLA; 94594) was purchased as a trans-10, cis-12 mix from Sigma. PPARγ and PPARα ligands Troglitazone (5 μM) and WY-14643 (100 μM) were products from Cayman.
(§3) RNA was prepared using the Qiagen RNeasy Mini Kit following the manufacturer's protocol and cDNA was synthesised using the cDNA synthesis kit from Invitrogen according to protocol. Semi-quantitative, SYBR Green based (Applied Biosystems) real time PCR was used to detect transcripts. Forward and reverse primers were mixed at equal concentration and used at a final concentration of 0.2 μM. ADRP Fw: 5′-[…]-3′ (SEQ ID NO:1), Rv: 5′-[…]-3′ (SEQ ID NO:2); Beta-actin Fw: 5′-CCTGGCACCCAGCACAAT-3′ (SEQ ID NO:3), Rv: 5′-[…]-3′ (SEQ ID NO:4); FIAF Fw: 5′-AAAGAGGCTGCCCGAGAT-3′ (SEQ ID NO:5), Rv: 5′-TCTCCCCAACCTGGAACA-3′ (SEQ ID NO:6); ME Fw: 5′-[…]-3′ (SEQ ID NO:7), Rv: 5′-[…]-3′ (SEQ ID NO:8). Each experiment was carried out in sample duplicates. The mRNA levels of each sample were determined in triplicates. Real time PCR was performed using the ABI 7500 System for data acquisition and analysis by using the ABI 7500 System Sequence Detection software. […]

[2] = system: FIAF expression in HCT116 cells; experiment: FIAF expression in HCT116 cells by real time PCR after stimulation with bacteria, media or compounds; conditions: concentration curve, 100 μM CLA for 6 h and 24 h
Protocol: as §1
Strain F19 was always pre-cultured for 6-8 h at 37° C. on a rotating platform (225 rpm). Pre-cultures were then added to pre-warmed deMan Rogosa Sharpe (MRS) medium (dilution 1:20). The cultures were cultivated overnight prior to use. Bacterial concentration at OD600nm was determined: 1 OD600nm=1×10^8 F19/ml. The required amount of F19 was resuspended in an appropriate volume of the respective pre-warmed medium without antibiotics.
Co-culture was prepared by washing the colonic cells with warm PBS. Cells were incubated with 2×10^7/ml of F19 or with medium alone. The experiment was terminated by thoroughly washing the plates with ice-cold PBS.
As a control, F19 was heat-inactivated by incubating at 80° C. for 30 minutes. […]
RNA was prepared using the Qiagen RNeasy Mini Kit following the manufacturer's protocol and cDNA was synthesised using the cDNA synthesis kit from Invitrogen according to protocol. Semi-quantitative, SYBR Green based (Applied Biosystems) real time PCR was used to detect transcripts. […] The mRNA levels of each sample were determined in triplicates. […]

[3] = system: FIAF expression in HT29 cells, PPARγ incapacitated by siRNA; experiment: FIAF expression in HT29 cells with PPARγ siRNA
Protocol: as §1
RNA was prepared using the Qiagen RNeasy Mini Kit following the manufacturer's protocol and cDNA was synthesised using the cDNA synthesis kit from Invitrogen according to protocol. Semi-quantitative, SYBR Green based (Applied Biosystems) real time PCR was used to detect transcripts. Forward and reverse primers were mixed at equal concentration and used at a final concentration of 0.2 μM. ADRP Fw: 5′-[…]-3′ (SEQ ID NO:1), Rv: 5′-[…]-3′ (SEQ ID NO:2); Beta-actin Fw: 5′-CCTGGCACCCAGCACAAT-3′ (SEQ ID NO:3), Rv: 5′-[…]-3′ (SEQ ID NO:4); FIAF Fw: 5′-AAAGAGGCTGCCCGAGAT-3′ (SEQ ID NO:5), Rv: 5′-TCTCCCCAACCTGGAACA-3′ (SEQ ID NO:6); ME Fw: 5′-[…]-3′ (SEQ ID NO:7), Rv: 5′-[…]-3′ (SEQ ID NO:8). Each experiment was carried out in sample duplicates. The mRNA levels of each sample were determined in triplicates. Real time PCR was performed using the ABI 7500 System for data acquisition and analysis by using the ABI 7500 System Sequence Detection software. Data is presented as mean values with standard errors.
Elimination of PPAR transcripts from HT29 cells was accomplished by Dharmacons readymade siRNA products (SMARTpool Human PPARG). […]

[4] = system: Adipose differentiation-related protein (ADRP); experiment: Expression of PPARγ target gene ADRP in HCT116 cells (real time PCR); conditions: 100 μM CLA for 24 h
Protocol: as §1, §2, §3

Substance: Conjugated linoleic acid [CLA]
- Expression of PPARα target gene ME [1]: increased expression
- FIAF expression induced by CLA, dose and time dependence [2]: upregulate FIAF expression in a dose and time dependent manner
- FIAF expression when PPARγ is incapacitated by siRNA [3]: no longer enhanced
- Expression of PPARγ target gene ADRP [4]: increased expression
